Key:
[1] = tested on: diet induced obese (DIO) male hGIPR mice; test: Oral glucose tolerance test (OGTT) in DIO male hGIPR mice; assay type: in vivo, mouse; conditions: single dose 1 mpk, versus IgG (FIG. 5B)
Text: To test the efficacy of anti-GIPR antibodies GIPR-0107 and GIPR-2767 in vivo, humanized mice expressing hGIPR were made in which human GIPR is expressed under the control of the endogenous mouse Gipr locus while knocking out the mouse Gipr gene. Human GIPR cDNA-SV40 pA was inserted in-frame with mouse Gipr at the end of exon 2 (1st coding exon) utilizing CRISPR/Cas9 technology. Insertion of human GIPR cDNA and disruption of mouse Gipr was validated by genotyping, and human GIPR mRNA expression was confirmed by quantitative PCR. These hGIPR mice were used to measure the in vivo efficacy of GIPR-0107 and GIPR-2767 using oral glucose tolerance test (OGTT) and weight gain prevention studies.
Mice were singly housed, maintained on a 12-hour light/12-hour dark cycle, and received food and wr ad libitum. Prior to the start of the study, mice were weighed and randomized into groups based on body weight. […] Before dosing, mice were bled vial tail snip to obtain a basal blood glucose reading by AlphaTRAK handheld glucometer, and at time 0, mice were dosed with 1.5 g/kg glucose by oral gavage. Blood glucose was measured by glucometer at 15 min, 30 min, 60 min, and 120 min after glucose administration. […] All residuals were evaluated for meeting the normality assumption with the Shapiro-Wilks Test and Q-Q Plots and the sphericity and homoscedasticity assumption by the residual plots and Bartlett's test. […]

[2] = tested on: diet induced obese (DIO) hGIPR mice; test: Body weight gain prevention and food intake in DIO hGIPR mice on high fat diet; assay type: in vivo, mouse; conditions: 1 mg/kg s.c. twice a week, 60% high fat diet, compared to IgG control (FIG. 6)
Text: Male hGIPR mice between 18-21 weeks of age were utilized which had been on 60% high fat diet (D12492, Research Diets) for 14 weeks prior to the start of the study and were singly housed, maintained on a 12-hour light/12-hour dark cycle, and received food and water ad libitum. Prior to the start of the study, mice were randomized into each group based on body weight. […] Mice were continued on 60% high fat diet for the duration of the study. In FIG. 2, number of animals per group=10; Data are presented as the mean and error bars are SEM.
To determine statistical significance for the body weight endpoint, a generalized least squares linear model with appropriate fixed effects and correlation and variance structure are used for BW outcomes. All residuals were evaluated for meeting the normality assumption with the Shapiro-Wilks Test and Q-Q Plots and the sphericity and homoscedasticity assumption by the residual plots and Bartlett's test. […]
Male hGIPR mice between 18-21 weeks of age were utilized which had been on 60% high fat diet (D12492, Research Diets) for 14 weeks prior to the start of the study and were singly housed, maintained on a 12 hour light/12 hour dark cycle, and received food and water ad libitum. […] Percent change in body weight at each time point was calculated based on difference from pre-dose weight, and 24 hour food intake was measured during week 3. […]

## 2G10: fully human monoclonal anti-GIPR antagonist antibody portion of AMG 133 (maridebart cafraglutide); benchmark antibody [reference compound]
[1]
  baseline glucose adjusted AUC in OGTT: not significantly different than IgG
[2]
  body weight gain: reduced body weight gain
